Data as given in patent US9119857B2, “Small molecule activators of HsIV protease for development of novel antimicrobials” (priority 2013, dated 2015).

Target: T1, E. coli HslV peptidase (Escherichia coli, UniProt P0A7B8)
T1 construct: His tag (inferred from Ni-chelating purification and the pET20B+ vector); made in house; host or cells: E. coli BL21 (DE3), pET20B+ vector
Experiment: biochemical
Conditions: recombinant E. coli HslV; substrate Z-Gly-Gly-Leu-AMC; in the absence of HslU; ED50 = concentration giving half maximal reaction velocity, from Vi/Vo plots; read-out: E. coli HslV activation (ED50 in μM)
Experimental: ED50 values were calculated from the plots of Vi/Vo versus compound concentration in which Vi and Vo were the velocities in the presence and absence of the compound^20.
The HslV activation assays were carried out with recombinant E. coli HslV and HslU. Recombinant HslV and HslU were expressed in E. coli BL21 (DE3) cells containing pET20B+ vector. Purification of both proteins was carried out using Ni-chelating and ion-exchange chromatography as reported elsewhere^4.
Plots of HslV peptidase activity as a function of compound concentrations were constructed (FIG. 4).

T1 sequence (P0A7B8 2-176): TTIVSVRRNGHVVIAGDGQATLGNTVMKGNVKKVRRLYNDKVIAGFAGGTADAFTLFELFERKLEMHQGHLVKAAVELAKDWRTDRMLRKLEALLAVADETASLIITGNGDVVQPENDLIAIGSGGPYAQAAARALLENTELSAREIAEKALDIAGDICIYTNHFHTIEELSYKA

Structure (SMILES) | EC50 [µM]
O=c1c2ccccc2nc(-c2ccc([N+](=O)[O-])cc2)n1/N=C/c1c(O)ccc2ccccc12 [Compound 1, 3-[(E)-[(2-hydroxynaphthalen-1-yl)methylidene]amino]-2-(4-nitrophenyl)-3,4-dihydroquinazolin-4-one] | 0.9 ± 0.25
O=C(N/N=C/c1cc(=O)c2ccccc2o1)c1ccccc1 [Compound 2, N″-[(1E)-(4-oxo-4H-chromen-2-yl)methylidene]benzohydrazide] | 1.3 ± 0.4
